How the values were obtained:
[1] = target: isolated recombinant JAK1 kinase domain (Homo sapiens (Human), UniProt P23458); experiment: JAK1 enzyme assay (Caliper LabChip, peptide phosphorylation); format: biochemical; settings: isolated recombinant JAK1 kinase domain, 25 μM ATP
[2] = target: isolated recombinant JAK2 kinase domain (Homo sapiens (Human), UniProt O60674); experiment: JAK2 enzyme assay (Caliper LabChip, peptide phosphorylation); format: biochemical; settings: 25 μM ATP
[3] = system: JAK1-dependent STAT6 phosphorylation downstream of IL-13 stimulation in TF-1 human erythroleukemia cells; experiment: JAK1 pathway assay in TF-1 cells (IL-13-pSTAT6, MSD); format: cell-based; settings: Homo sapiens, TF-1, TF-1 cells, read-out: IL13-pSTAT6 EC50_TF-1
How it was run: (§1)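 Cells were preincubated with compounds (0.2% DMSO) for 30 min (TF-1, GM-CSF-starved overnight, serum-free OptiMEM, 300,000 cells/well) or 1 h (BEAS-2B, complete medium, 100,000 cells/well) at 37 °C.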

[4] = Clearance assay: mouse intravenous (IV) clearance; format: in vivo; settings: female BALB/c mice; for IV Mouse CL, % of liver blood flow: clearance as % of mouse liver blood flow; for clearance: mouse, read-out: IV Mouse CL
From the text: In certain instances high systemic clearance of a drug substance may be of benefit. For example, in the treatment of pulmonary diseases it may be beneficial to have high drug concentrations in the lung, with lower concentrations in the bloodstream or peripheral organs. In such cases, it may be advantageous to administer a drug substance with high systemic clearance via the inhaled delivery route. This approach may maximize pharmacologic activity of the drug substance in the lung while minimizing the possibility of on-target toxicity elsewhere in the body. The functional groups appended to the 5-chloro-2-difluoromethoxyphenyl pyrazolopyrimidine scaffold affect systemic clearance.
Female BALB/c mice were obtained from Charles River Labs (Hollister, Calif. USA). Twelve animals were given a single IV dose of 1 mg/kg of compounds via the tail vein. A representative dose solution was prepared as follows: the compound was dissolved in a mixture of 5% dimethylsulfoxide (DMSO), 35% polyethylene glycol (PEG 400), and 60% water (v/v/v), respectively, and administered at a dosing volume of 5 mL/kg. Mice weighed approximately 20-25 g at the start of the study. After intravenous administration of compounds, each animal was bled twice via retro-orbital and cardiac puncture. PK time points were collected at 2 min, 5 min, 15 min, 30 min, 1 hr, 2 hr, 4 hr, and 8 hr post-dose. Plasma samples were stored at approximately −80° C. until thawed for LC-MS/MS analysis. PK data analysis was performed on mean plasma concentration-time data and PK parameters were determined by non compartmental methods using WinNonlin® Enterprise, version 5.2.1 (Pharsight Corporation; Mountain View, Calif.).

[5] = system: JAK1-dependent STAT6 phosphorylation downstream of IL-13 stimulation in BEAS-2B human bronchial epithelial cells; experiment: JAK1 pathway assay in BEAS-2B cells (IL-13-pSTAT6, MSD); format: cell-based; settings: read-out: IL13-pSTAT6 EC50 (uM)_BEAS-2B
How it was run: as §1

[6] = plasma, single IV dose of 1 mg/kg via the tail vein

isolated recombinant JAK1 kinase domain, sequence (P23458 875-1153): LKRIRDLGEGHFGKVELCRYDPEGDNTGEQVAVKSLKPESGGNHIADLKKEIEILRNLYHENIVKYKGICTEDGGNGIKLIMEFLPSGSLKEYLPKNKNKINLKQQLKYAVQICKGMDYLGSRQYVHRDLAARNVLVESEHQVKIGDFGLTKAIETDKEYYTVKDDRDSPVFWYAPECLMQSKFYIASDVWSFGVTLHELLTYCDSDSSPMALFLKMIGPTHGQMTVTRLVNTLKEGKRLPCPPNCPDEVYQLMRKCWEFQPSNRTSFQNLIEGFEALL
isolated recombinant JAK2 kinase domain, sequence (O60674 849-1124): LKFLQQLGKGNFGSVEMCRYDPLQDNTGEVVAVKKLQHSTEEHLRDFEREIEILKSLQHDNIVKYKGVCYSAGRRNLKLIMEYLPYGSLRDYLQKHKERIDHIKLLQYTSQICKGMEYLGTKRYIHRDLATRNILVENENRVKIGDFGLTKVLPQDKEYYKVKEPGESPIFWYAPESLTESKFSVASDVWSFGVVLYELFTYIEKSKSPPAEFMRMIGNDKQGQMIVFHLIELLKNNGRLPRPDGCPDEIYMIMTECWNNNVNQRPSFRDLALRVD

Row | Structure (SMILES) | Ki [1] [nM] | Ki [2] [nM] | EC50 [3] [nM] | IV Mouse CL, % of liver blood flow ([4]; single IV dose of 1 mg/kg) [%] | clearance [4, 6] [mL/min/kg] | mouse IV clearance as % of mouse liver blood flow ([4]; single IV dose of 1 mg/kg) [%] | mouse intravenous (IV) clearance value ([4]; single IV dose of 1 mg/kg via the tail vein, plasma) [mL/min/kg] | EC50 [5] [µM]
1 | CN(CC(F)(F)F)C1CCN(c2nc(-c3cc(Cl)ccc3OC(F)F)c(NC(=O)c3cnn4cccnc34)s2)CC1 [Example 198, N-[4-[5-chloro-2-(difluoromethoxy)phenyl]-2-[4-[methyl(2,2,2-trifluoroethyl)amino]-1-piperidyl]thiazol-5-yl]pyrazolo[1,5-a]pyrimidine-3-carboxamide] | 2.72 | 2.17 | 29.1 | >100 | 326 | – | – | –
2 | CC(C)(O)Cn1cc(NC(=O)c2cnn3cccnc23)c(-c2cc(Cl)ccc2OC(F)F)n1 [i] | – | – | – | – | – | 6 | 5.3 | –
3 | O=C(Nc1cn(CC(=O)N2C[C@H]3CN(CC(F)(F)F)C[C@H]3C2)nc1-c1cc(Cl)ccc1OC(F)F)c1cnn2cccnc12 [Example 59, N-[1-[2-[(3aR,6aS)-2-(2,2,2-trifluoroethyl)-1,3,3a,4,6,6a-hexahydropyrrolo[3,4-c]pyrrol-5-yl]-2-oxo-ethyl]-3-[5-chloro-2-(difluoromethoxy)phenyl]pyrazol-4-yl]pyrazolo[1,5-a]pyrimidine-3-carboxamide] | 0.5 | 0.8 | 3.7 | 43 | 39 | – | – | –
4 | N#CCCNC1CCN(C(=O)Cn2cc(NC(=O)c3cnn4cccnc34)c(-c3cc(Cl)ccc3OC(F)F)n2)CC1 [Example 87, N-[3-[5-chloro-2-(difluoromethoxy)phenyl]-1-[2-[4-(2-cyanoethylamino)-1-piperidyl]-2-oxo-ethyl]pyrazol-4-yl]pyrazolo[1,5-a]pyrimidine-3-carboxamide] | 0.4 | 0.73 | 15.4 | – | – | – | – | 0.014
5 | CN1CC[C@@H]2[C@H](CCN2C(=O)Cn2cc(NC(=O)c3cnn4cccnc34)c(-c3cc(Cl)ccc3OC(F)F)n2)C1 [Example 61, N-[1-[2-[(3aR,7aR)-5-methyl-3,3a,4,6,7,7a-hexahydro-2H-pyrrolo[3,2-c]pyridin-1-yl]-2-oxo-ethyl]-3-[5-chloro-2-(difluoromethoxy)phenyl]pyrazol-4-yl]pyrazolo[1,5-a]pyrimidine-3-carboxamide] | 0.23 | 0.68 | 27.5 | – | – | – | – | 0.0324
6 | CC1(CN(CCC(F)(F)F)C2CCN(C(=O)Cn3cc(NC(=O)c4cnn5cccnc45)c(-c4cc(Cl)ccc4OC(F)F)n3)CC2)COC1 [Example 117, N-[3-[5-chloro-2-(difluoromethoxy)phenyl]-1-[2-[4-[(3-methyloxetan-3-yl)methyl-(3,3,3-trifluoropropyl)amino]-1-piperidyl]-2-oxo-ethyl]pyrazol-4-yl]pyrazolo[1,5-a]pyrimidine-3-carboxamide] | 0.51 | 1.13 | 8.6 | – | – | – | – | 0.0546
7 | CCOC(=O)CN1CCN(C(=O)Cn2cc(NC(=O)c3cnn4cccnc34)c(-c3cc(Cl)ccc3OC(F)F)n2)CC1 [Example 397, ethyl 2-[4-(2-[3-[5-chloro-2-(difluoromethoxy)phenyl]-4-[pyrazolo[1,5-a]pyrimidine-3-amido]-1H-pyrazol-1-yl]acetyl)piperazin-1-yl]acetate] | – | 0.77 | – | >100 | 141 | – | – | 0.027
8 | N=C(N)CCCn1cc(NC(=O)c2cnn3cccnc23)c(-c2cc(Cl)ccc2OC(F)F)n1 [Example 305, N-[1-(4-amino-4-imino-butyl)-3-[5-chloro-2-(difluoromethoxy)phenyl]pyrazol-4-yl]pyrazolo[1,5-a]pyrimidine-3-carboxamide] | 0.61 | 0.32 | 10.9 | – | – | – | – | 0.0426
9 | NCCn1cc(NC(=O)c2c(N)nn3cccnc23)c(-c2cc(Cl)ccc2OC(F)F)n1 [Example 295, 2-amino-N-[1-(2-aminoethyl)-3-[5-chloro-2-(difluoromethoxy)phenyl]pyrazol-4-yl]pyrazolo[1,5-a]pyrimidine-3-carboxamide] | 0.49 | 0.21 | 5.5 | – | – | – | – | 0.0345
10 | CC1(O)CCN(C(=O)Cn2cc(NC(=O)c3cnn4cccnc34)c(-c3cc(Cl)ccc3OC(F)F)n2)CC1 [Example 280, N-[3-[5-chloro-2-(difluoromethoxy)phenyl]-1-[2-(4-hydroxy-4-methyl-1-piperidyl)-2-oxo-ethyl]pyrazol-4-yl]pyrazolo[1,5-a]pyrimidine-3-carboxamide] | 0.39 | 0.81 | 4.3 | – | – | – | – | 0.0215
11 | O=C(Nc1cn(CC(=O)N2C[C@H]3CN(CC4CCCCC4)C[C@H]3C2)nc1-c1cc(Cl)ccc1OC(F)F)c1cnn2cccnc12 [Example 52, N-[1-[2-[(3aR,6aS)-2-(cyclohexylmethyl)-1,3,3a,4,6,6a-hexahydropyrrolo[3,4-c]pyrrol-5-yl]-2-oxo-ethyl]-3-[5-chloro-2-(difluoromethoxy)phenyl]pyrazol-4-yl]pyrazolo[1,5-a]pyrimidine-3-carboxamide] | 0.65 | 0.62 | 5.4 | – | – | – | – | 0.0388
12 | CCOC(=O)[C@@H](N)CCn1cc(NC(=O)c2cnn3cccnc23)c(-c2cc(Cl)ccc2OC(F)F)n1 [Example 309, ethyl (2S)-2-amino-4-[3-[5-chloro-2-(difluoromethoxy)phenyl]-4-(pyrazolo[1,5-a]pyrimidine-3-carbonylamino)pyrazol-1-yl]butanoate] | 1.34 | 0.47 | 16.3 | – | – | – | – | 0.049
13 | Nc1nn2cccnc2c1C(=O)Nc1cn([C@H]2C[C@@H](N)C2)nc1-c1cc(Cl)ccc1OC(F)F [Example 297, 2-Amino-pyrazolo[1,5-a]pyrimidine-3-carboxylic acid [1-(3-amino-cyclobutyl)-3-(5-chloro-2-difluoromethoxy-phenyl)-1H-pyrazol-4-yl]-amide] | 0.32 | 0.07 | 7.1 | – | – | – | – | 0.0308
14 | O=C(Nc1cn(CC2(O)CCCC2)nc1-c1cc(Cl)ccc1OC(F)F)c1cnn2cccnc12 [Example 292, N-[3-[5-chloro-2-(difluoromethoxy)phenyl]-1-[(1-hydroxy-cyclopentyl)methyl]pyrazol-4-yl]pyrazolo[1,5-a]pyrimidine-3-carboxamide] | 0.39 | 0.4 | 1.4 | – | – | – | – | 0.021
15 | N=C(N)CCn1cc(NC(=O)c2cnn3cccnc23)c(-c2cc(Cl)ccc2OC(F)F)n1 [Example 304, N-[1-(2-carbamimidoylethyl)-3-[5-chloro-2-(difluoromethoxy)phenyl]-1H-pyrazol-4-yl]pyrazolo[1,5-a]pyrimidine-3-carboxamide] | 0.78 | 0.39 | 5.9 | – | – | – | – | 0.0469
16 | CCN(Cc1ccnc(Cl)c1)C(=O)Cn1cc(NC(=O)c2cnn3cccnc23)c(-c2cc(Cl)ccc2OC(F)F)n1 [Example 300, N-[3-[5-chloro-2-(difluoromethoxy)phenyl]-1-[2-[(2-chloro-4-pyridyl)methyl-ethyl-amino]-2-oxo-ethyl]pyrazol-4-yl]pyrazolo[1,5-a]pyrimidine-3-carboxamide] | 0.28 | 0.18 | 4 | – | – | – | – | 0.0142
17 | CC(=O)N1CCC(N2CCC(n3cc(NC(=O)c4c(N)nn5cccnc45)c(-c4cc(Cl)ccc4OC(F)F)n3)CC2)CC1 [Example 144, N-[1-[1-(1-acetyl-4-piperidyl)-4-piperidyl]-3-[5-chloro-2-(difluoromethoxy)phenyl]pyrazol-4-yl]-2-amino-pyrazolo[1,5-a]pyrimidine-3-carboxamide] | 0.54 | 0.17 | 12.8 | – | – | – | – | 0.0213
18 | CN1CC2CN(C(=O)Cn3cc(NC(=O)c4c(N)nn5cccnc45)c(-c4cc(Cl)ccc4OC(F)F)n3)CC2C1 (stereo not drawn) [Example 9, 2-amino-N-[3-[5-chloro-2-(difluoromethoxy)phenyl]-1-[2-(2-methyl-1,3,3a,4,6,6a-hexahydropyrrolo[3,4-c]pyrrol-5-yl)-2-oxo-ethyl]pyrazol-4-yl]pyrazolo[1,5-a]pyrimidine-3-carboxamide] | 0.71 | 0.28 | 15.6 | – | – | – | – | 0.554

Source: patent publication US9346815B2, “5-chloro-2-difluoromethoxyphenyl pyrazolopyrimidine compounds, compositions and methods of use thereof” (Genentech, Inc., priority 2014, dated 2016)
